The values that follow are results of earlier work, collected in patent US10993890B2, “Antifungal solution and foot wipe” (PELLI SKIN CO., LLC, priority 2018, dated 2021).

For data set [1] the following is noted: octanol/water partition coefficient of the solvent.
Data set [2] deals with skin cells. The following applies: 3% ethanol applied to skin cells over the course of two days.

For `CC1COCO1` (centres unmarked) [4-Methyl-1,3-dioxolane], the LogKow in data set [1] is on record as 0.3792.

`OC1COCOC1` [5-Hydroxy-1,3-dioxane]: the LogKow in data set [1] is −1.082.

As to `CCO` [ethanol], the “increase of cell death” value in data set [2] is on record as 26%.

On to `C1CCOCOC1` [1,3-Dioxepane], for which, in data set [1], the LogKow was 0.7709. As for 1,3-dioxolan, the LogKow in data set [1] is −0.37.
